Laboratory results from ChEMBL document CHEMBL5724796, “Tm Shift (DSF) assay results for EUbOPEN Chemogenomics Library” (2024).

Legend:
Peregrin (Homo sapiens) = target: T1, Peregrin (Homo sapiens) (UniProt P55201); conditions: Compound concentration 20.0 uM
T1 sequence (whole entry): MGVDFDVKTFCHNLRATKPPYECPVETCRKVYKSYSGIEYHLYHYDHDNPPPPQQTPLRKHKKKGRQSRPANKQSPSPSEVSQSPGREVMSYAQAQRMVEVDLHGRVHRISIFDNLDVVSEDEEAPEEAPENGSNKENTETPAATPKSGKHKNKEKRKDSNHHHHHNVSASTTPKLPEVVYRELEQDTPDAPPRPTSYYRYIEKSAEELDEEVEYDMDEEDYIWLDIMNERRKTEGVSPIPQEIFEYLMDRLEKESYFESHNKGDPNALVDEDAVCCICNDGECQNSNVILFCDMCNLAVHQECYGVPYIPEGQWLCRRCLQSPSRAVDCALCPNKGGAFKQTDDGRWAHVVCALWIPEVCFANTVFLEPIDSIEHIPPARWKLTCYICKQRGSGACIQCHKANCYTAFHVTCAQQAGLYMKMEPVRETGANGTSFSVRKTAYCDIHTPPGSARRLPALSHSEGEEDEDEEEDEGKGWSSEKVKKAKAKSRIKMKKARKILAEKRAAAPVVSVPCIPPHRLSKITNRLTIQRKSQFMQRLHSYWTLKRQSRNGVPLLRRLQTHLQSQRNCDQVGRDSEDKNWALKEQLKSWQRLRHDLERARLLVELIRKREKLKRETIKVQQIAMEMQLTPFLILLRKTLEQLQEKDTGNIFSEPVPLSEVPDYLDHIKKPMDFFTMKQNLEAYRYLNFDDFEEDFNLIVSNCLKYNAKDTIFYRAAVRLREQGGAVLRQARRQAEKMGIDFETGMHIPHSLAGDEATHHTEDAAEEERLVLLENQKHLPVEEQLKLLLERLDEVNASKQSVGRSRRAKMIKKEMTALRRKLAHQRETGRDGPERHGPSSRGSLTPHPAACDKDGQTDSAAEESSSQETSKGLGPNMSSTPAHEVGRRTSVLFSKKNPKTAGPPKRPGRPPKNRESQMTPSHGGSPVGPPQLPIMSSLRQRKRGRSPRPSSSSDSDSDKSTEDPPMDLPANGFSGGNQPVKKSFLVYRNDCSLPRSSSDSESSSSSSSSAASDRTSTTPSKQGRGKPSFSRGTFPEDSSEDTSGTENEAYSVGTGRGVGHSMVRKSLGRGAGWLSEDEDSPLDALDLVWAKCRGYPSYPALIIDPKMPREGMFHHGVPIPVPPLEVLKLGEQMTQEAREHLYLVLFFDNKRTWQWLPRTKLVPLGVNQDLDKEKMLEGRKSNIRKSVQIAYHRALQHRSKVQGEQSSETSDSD

[1] = target: Fibroblast growth factor receptor 2 (Homo sapiens) (UniProt P21802); conditions: Compound concentration 20.0 uM
Fibroblast growth factor receptor 2 (Homo sapiens), sequence (P21802 22-821 limits assumed): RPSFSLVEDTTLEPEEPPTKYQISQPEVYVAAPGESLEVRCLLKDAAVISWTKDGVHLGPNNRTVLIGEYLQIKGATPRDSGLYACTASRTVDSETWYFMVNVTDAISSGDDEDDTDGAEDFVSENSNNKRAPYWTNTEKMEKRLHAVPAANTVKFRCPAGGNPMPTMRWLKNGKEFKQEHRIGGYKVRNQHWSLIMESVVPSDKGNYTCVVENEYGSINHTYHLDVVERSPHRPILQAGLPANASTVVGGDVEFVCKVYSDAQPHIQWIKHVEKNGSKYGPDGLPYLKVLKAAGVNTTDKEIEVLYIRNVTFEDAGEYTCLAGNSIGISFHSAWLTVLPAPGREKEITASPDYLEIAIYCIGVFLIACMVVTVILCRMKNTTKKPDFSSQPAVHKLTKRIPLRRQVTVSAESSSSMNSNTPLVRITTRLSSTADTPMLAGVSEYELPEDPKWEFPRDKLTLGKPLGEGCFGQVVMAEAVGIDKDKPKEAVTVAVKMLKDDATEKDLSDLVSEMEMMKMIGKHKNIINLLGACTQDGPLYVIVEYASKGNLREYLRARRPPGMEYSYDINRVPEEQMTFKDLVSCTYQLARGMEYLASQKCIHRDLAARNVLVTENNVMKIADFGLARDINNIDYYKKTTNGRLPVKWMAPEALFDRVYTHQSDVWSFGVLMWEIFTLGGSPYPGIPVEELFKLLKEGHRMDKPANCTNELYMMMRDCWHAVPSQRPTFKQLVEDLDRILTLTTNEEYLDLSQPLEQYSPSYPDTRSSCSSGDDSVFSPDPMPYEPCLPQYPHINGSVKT
Description: Thermal Shift Assay. Domain: start/stop: T457-E768

For `CCCCCCCCCCCCCC(=S)NCCCC[C@H](NC(=O)OCc1ccccc1)C(=O)Nc1ccccc1`, the ΔTm (Peregrin (Homo sapiens)) was 3.33 °C and the ΔTm [1] was 0.84 °C.
Work on `COc1ccc(-c2ccc3c(c2)COC3=O)n2nc(C3(C(=O)OCC(C)C)CC3)nc12` yielded a ΔTm (Peregrin (Homo sapiens)) of 0.76 °C and a ΔTm [1] of 0.71 °C.
`COC(=O)C[C@@H]1N=C(c2ccc(Cl)cc2)c2c(sc(C)c2C)-n2c(C)nnc21` gave a ΔTm (Peregrin (Homo sapiens)) of -0.95 °C and a ΔTm [1] of 0.53 °C.
For `CN1[C@@H]2CC[C@H]1C[C@@H](OC(c1ccc(F)cc1)c1ccc(F)cc1)C2`, the ΔTm (Peregrin (Homo sapiens)) was -0.08 °C and the ΔTm [1] was -0.72 °C.
`Cc1ncsc1-c1ccc(CNC(=O)[C@@H]2C[C@@H](O)CN2C(=O)[C@@H](NC(=O)COCC(C)(COCCOCCOCCNC(=O)C[C@@H]2N=C(c3ccc(Cl)cc3)c3c(sc(C)c3C)-n3c(C)nnc32)COCCOCCOCCNC(=O)C[C@@H]2N=C(c3ccc(Cl)cc3)c3c(sc(C)c3C)-n3c(C)nnc32)C(C)(C)C)cc1` gave a ΔTm (Peregrin (Homo sapiens)) of -5.29 °C and a ΔTm [1] of -1.18 °C.
In the case of `O=C(N(CCc1ccccc1)C1CCCCC1)n1ncc(-c2ccc(OC(F)(F)F)cc2)n1`, the ΔTm (Peregrin (Homo sapiens)) is reported as 1.62 °C and the ΔTm [1] is reported as -0.24 °C.
`COc1ccc2c(c1)OC(C)(C)C(c1ccccc1)C2c1ccc(OCCN2CCCC2)cc1` (stereo not drawn) gave a ΔTm (Peregrin (Homo sapiens)) of -2.59 °C and a ΔTm [1] of 0.15 °C.
`O=C1c2ccccc2C(=O)c2oc(-c3ccc(F)cc3)nc21` gave a ΔTm (Peregrin (Homo sapiens)) of -0.98 °C and a ΔTm [1] of 0.19 °C.
In the case of `CC(C)(C)C1CCN(C(=O)n2ncc(C(O)(c3ccccc3)c3ccccc3)n2)CC1`, the ΔTm (Peregrin (Homo sapiens)) is reported as -4.31 °C and the ΔTm [1] is reported as -3.22 °C.
Work on `Cc1cc(C(=O)CN2CCC(O)CC2)c(C)n1-c1ccc(C#N)cc1` yielded a ΔTm (Peregrin (Homo sapiens)) of 1.04 °C and a ΔTm [1] of -0.17 °C.
Compound `CCNC(=O)/C=C/c1cccc(Br)c1` has a ΔTm (Peregrin (Homo sapiens)) of -1.37 °C and a ΔTm [1] of -0.4 °C.
In the case of `COc1cc(-c2cn(C)c(=O)c3cnccc23)cc(OC)c1CN(C)CC(=O)NCCOCCOCCNc1cccc2c1C(=O)N(C1CCC(=O)NC1=O)C2=O` (stereo not drawn), the ΔTm (Peregrin (Homo sapiens)) is reported as -0.56 °C and the ΔTm [1] is reported as 0.52 °C.
With `CC(C)Oc1ccc(C=O)cc1` the ΔTm (Peregrin (Homo sapiens)) was -0.07 °C and the ΔTm [1] was 0.13 °C.
Compound `O=C(N1CCCC[C@H]1Cc1ccccc1)n1cc(-c2ccc(-c3ccccc3)cc2)nn1` has a ΔTm (Peregrin (Homo sapiens)) of 1 °C and a ΔTm [1] of 0.8 °C.
`CCCC[C@]1(CC)CS(=O)(=O)c2cc(CNC(CC(=O)O)CC(=O)O)c(OC)cc2[C@@H](c2ccccc2)N1` showed a ΔTm (Peregrin (Homo sapiens)) of 1.87 °C and a ΔTm [1] of 0.6 °C.
With `CCn1nc(C2CC2)cc1Nc1nc(C(=O)NC)nc2[nH]c3cc(-c4c(C)noc4C)c(OC)cc3c12` the ΔTm (Peregrin (Homo sapiens)) was 0.68 °C and the ΔTm [1] was -0.1 °C.
In the case of `C[C@H]1CO[C@@H]2Cn3cc(C(=O)NCc4ccc(F)cc4F)c(=O)c(O)c3C(=O)N12`, the ΔTm (Peregrin (Homo sapiens)) is reported as 2.22 °C and the ΔTm [1] is reported as 0.45 °C.
`CC(C)c1c(-c2cnn(C(C)(C)C)c2)[nH]c2c(C#N)cnn2c1=O` was tested, and the ΔTm (Peregrin (Homo sapiens)) was 0.8 °C and the ΔTm [1] was 0.36 °C.
For `Cc1cc2cc(NS(=O)(=O)c3ccc(C#N)cc3)ccc2n(C)c1=O`, the ΔTm (Peregrin (Homo sapiens)) was 8.89 °C and the ΔTm [1] was 0.4 °C.
`CCn1c(=O)c(C)cn(Cc2nnc(-c3ccc(F)c(O)c3F)s2)c1=O` gave a ΔTm (Peregrin (Homo sapiens)) of -0.64 °C and a ΔTm [1] of 0.53 °C.
`CN(C)Cc1ccc(-c2nc3cccc4c3n2CCNC4=O)cc1` showed a ΔTm (Peregrin (Homo sapiens)) of 0.88 °C and a ΔTm [1] of 0.73 °C.
Work on `COc1cc2/c(=N/c3ccc(Br)cc3F)nc[nH]c2cc1OCC1CCN(C)CC1` yielded a ΔTm (Peregrin (Homo sapiens)) of -0.84 °C and a ΔTm [1] of 5.47 °C.
In the case of `CC(=O)N[C@@H](CC(=O)O)C(=O)N[C@@H](CCC(=O)O)C(=O)N[C@H](C(=O)N[C@H](C=O)CC(=O)O)C(C)C`, the ΔTm (Peregrin (Homo sapiens)) is reported as -1.4 °C and the ΔTm [1] is reported as -0.22 °C.
With `COc1ccc(N(C(=O)Oc2c(C)cccc2C)c2ccnc(Nc3ccc(N4CCN(C)CC4)cc3)n2)c(OC)c1` the ΔTm (Peregrin (Homo sapiens)) was -1.1 °C and the ΔTm [1] was 4.44 °C.
With `COC1CCN(C(=O)c2cc(Cc3n[nH]c(=O)c4ccccc34)ccc2F)CC1` the ΔTm (Peregrin (Homo sapiens)) was 1.51 °C and the ΔTm [1] was -0.21 °C.
Compound `COc1cc(C(=O)N2C[C@H](N)CC[C@@H]2C)cc2nc(-c3cc4cccnc4n3CC3CC3)n(C)c12` has a ΔTm (Peregrin (Homo sapiens)) of 0.21 °C and a ΔTm [1] of 0.33 °C.
Compound `CNCCCN1c2ccccc2CCc2ccccc21` has a ΔTm (Peregrin (Homo sapiens)) of 1.05 °C and a ΔTm [1] of -0.25 °C.
`C[C@@H](Nc1nc2c(cnn2C2CCCC2)c(=O)[nH]1)C(=O)N1CC[C@H](F)C1` gave a ΔTm (Peregrin (Homo sapiens)) of -0.37 °C and a ΔTm [1] of -0.04 °C.
Compound `CC(=O)N[C@@H](CC(=O)O)C(=O)N[C@@H](CCC(=O)O)C(=O)N[C@H](C(=O)N[C@@H](CC(=O)O)C(=O)CCl)C(C)C` has a ΔTm (Peregrin (Homo sapiens)) of -1.75 °C and a ΔTm [1] of 0.6 °C.
With `OC[C@H]1O[C@@H](c2ccc(Cl)c(Cc3ccc(O[C@H]4CCOC4)cc3)c2)[C@H](O)[C@@H](O)[C@@H]1O` the ΔTm (Peregrin (Homo sapiens)) was 1.01 °C and the ΔTm [1] was -0.41 °C.
In the case of `COc1ccccc1[C@H]1[C@H](C(=O)O)[C@H](c2ccccc2OC)[C@H]1C(=O)Oc1cccc2ccccc12`, the ΔTm (Peregrin (Homo sapiens)) is reported as 0.27 °C and the ΔTm [1] is reported as -0.72 °C.
For `O=C(NC[C@H](O)CN1CCc2ccccc2C1)c1cc(NC2COC2)ncn1`, the ΔTm (Peregrin (Homo sapiens)) was -1.25 °C and the ΔTm [1] was 0.37 °C.
`O=C1COc2c(cccc2[C@@H](O)CNCCN(C(=O)CCNCCc2ccc(Cl)c(Cl)c2)C2CCCCC2)N1` showed a ΔTm (Peregrin (Homo sapiens)) of -1.84 °C and a ΔTm [1] of 0.36 °C.
`CC/C(=C(/CC)c1ccc(O)cc1)c1ccc(O)cc1` was tested, and the ΔTm (Peregrin (Homo sapiens)) was -8.49 °C and the ΔTm [1] was -8.29 °C.
